SMILES strings stand for the structures.

The nature of series [1]: Physicochemical PBPK model inputs.
Series [2] addresses T1, OATP2B1 (Homo sapiens, UniProt O94956).
T1 sequence (O94956 1-709): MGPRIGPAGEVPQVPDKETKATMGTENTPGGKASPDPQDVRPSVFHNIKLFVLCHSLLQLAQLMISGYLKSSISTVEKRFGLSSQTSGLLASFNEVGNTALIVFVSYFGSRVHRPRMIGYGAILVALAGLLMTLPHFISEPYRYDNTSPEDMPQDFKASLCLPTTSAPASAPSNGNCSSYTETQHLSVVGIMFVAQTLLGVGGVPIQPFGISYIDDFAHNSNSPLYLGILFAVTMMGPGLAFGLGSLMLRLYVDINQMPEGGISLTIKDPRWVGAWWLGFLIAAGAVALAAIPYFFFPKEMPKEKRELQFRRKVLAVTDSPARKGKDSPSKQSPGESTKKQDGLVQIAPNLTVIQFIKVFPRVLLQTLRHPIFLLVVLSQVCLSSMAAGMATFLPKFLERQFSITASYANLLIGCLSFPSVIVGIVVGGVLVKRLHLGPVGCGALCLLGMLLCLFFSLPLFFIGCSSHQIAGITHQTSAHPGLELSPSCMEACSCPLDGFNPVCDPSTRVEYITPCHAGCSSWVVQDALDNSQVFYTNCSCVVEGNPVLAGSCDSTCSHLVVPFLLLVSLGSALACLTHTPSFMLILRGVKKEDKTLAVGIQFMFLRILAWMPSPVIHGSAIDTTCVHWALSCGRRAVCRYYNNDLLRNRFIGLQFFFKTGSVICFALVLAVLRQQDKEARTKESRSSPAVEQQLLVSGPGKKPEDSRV
Nature of the series: OATP2B1-mediated transport of substrate. The format is in vitro ADME. The following applies: Estimated; optimized to recover ~40% Fa.

Series [3] concerns OATP1B1, OATP1B3, and OATP2B1. The series can be described thus: SLC-phenotyping of hepatic uptake. The following applies: SLC-phenotyping methodology. The format is in vitro ADME, human.
The target of series [4] is T2, OATP1B3 (Homo sapiens, UniProt Q9NPD5).
T2 sequence (Q9NPD5 1-702): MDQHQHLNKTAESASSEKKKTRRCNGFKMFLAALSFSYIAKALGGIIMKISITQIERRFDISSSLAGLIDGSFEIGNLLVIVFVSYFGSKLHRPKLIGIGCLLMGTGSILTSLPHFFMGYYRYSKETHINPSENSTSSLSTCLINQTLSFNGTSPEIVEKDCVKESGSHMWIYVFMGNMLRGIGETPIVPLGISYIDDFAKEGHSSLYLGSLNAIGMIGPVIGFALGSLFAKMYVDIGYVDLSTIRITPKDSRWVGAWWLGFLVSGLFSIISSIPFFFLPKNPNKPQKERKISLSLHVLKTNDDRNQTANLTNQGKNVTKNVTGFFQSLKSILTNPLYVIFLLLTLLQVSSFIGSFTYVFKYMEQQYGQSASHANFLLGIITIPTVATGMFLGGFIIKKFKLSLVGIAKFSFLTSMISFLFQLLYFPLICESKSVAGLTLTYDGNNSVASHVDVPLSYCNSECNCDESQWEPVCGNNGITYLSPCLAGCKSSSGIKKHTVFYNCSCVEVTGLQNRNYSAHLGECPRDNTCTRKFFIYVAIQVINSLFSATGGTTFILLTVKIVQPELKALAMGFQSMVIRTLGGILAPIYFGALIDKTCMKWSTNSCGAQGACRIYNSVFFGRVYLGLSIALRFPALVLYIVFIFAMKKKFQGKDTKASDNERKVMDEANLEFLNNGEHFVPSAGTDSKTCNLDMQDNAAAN
The series can be described thus: OATP1B3-mediated transport of substrate. The format is in vitro ADME. The following applies: OATP1B3-transfected HEK293 cells.

Series [5] is described as follows: Passive transport clearance. The following applies: Measured using SCHH. The format is in vitro ADME, human.
The conditions of series [6]: cited from earlier work.
For series [7], the target named is T3, BCRP (Homo sapiens, UniProt Q9UNQ0).
T3 sequence (Q9UNQ0 1-655): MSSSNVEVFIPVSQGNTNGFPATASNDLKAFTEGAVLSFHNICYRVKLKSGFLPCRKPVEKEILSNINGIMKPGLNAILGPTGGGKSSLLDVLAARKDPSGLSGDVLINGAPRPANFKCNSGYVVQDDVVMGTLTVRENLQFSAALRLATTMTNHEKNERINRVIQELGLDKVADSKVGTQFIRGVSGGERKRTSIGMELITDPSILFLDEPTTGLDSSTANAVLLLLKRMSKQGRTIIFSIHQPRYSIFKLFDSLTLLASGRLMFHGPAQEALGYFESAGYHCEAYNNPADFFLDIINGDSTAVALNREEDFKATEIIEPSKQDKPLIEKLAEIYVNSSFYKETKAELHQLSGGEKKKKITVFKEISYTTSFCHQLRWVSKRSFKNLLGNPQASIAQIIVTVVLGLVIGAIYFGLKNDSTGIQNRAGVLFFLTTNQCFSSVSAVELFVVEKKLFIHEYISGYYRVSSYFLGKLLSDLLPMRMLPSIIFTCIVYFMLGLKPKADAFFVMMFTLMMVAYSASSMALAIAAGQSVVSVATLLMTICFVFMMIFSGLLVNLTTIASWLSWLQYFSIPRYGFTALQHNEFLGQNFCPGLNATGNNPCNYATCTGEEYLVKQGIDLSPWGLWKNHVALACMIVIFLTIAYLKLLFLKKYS
The series can be described thus: BCRP-mediated transport of substrate. The format is in vitro ADME. The note with it: Estimated; optimized to recover ~40% Fa.

The nature of series [8]: Caco-2 permeability. The format is in vitro ADME. The following applies: human.
The target in series [9] is T3, BCRP. The following applies: read-out: BCRP Km; membrane vesicle assay; cited from earlier work.

As usually defined, the pKa is the negative logarithm of the acid dissociation constant. A high value points to a weaker acid or stronger base. The Km is the concentration of substrate that gives half-maximal velocity. The Papp is the rate of passage across a membrane or cell layer, normalised by area and donor concentration. Low values mean poor permeation, high ones ready permeation. In series [1], `CC(C)c1nc(N(C)S(C)(=O)=O)nc(-c2ccc(F)cc2)c1/C=C/[C@@H](O)C[C@@H](O)CC(=O)O` [Rosuvastatin, rosuvastatin] came in with a pKa of 4.33. Moreover, the “Intestinal OATP2B1 CLint,T” value in series [2] is 0.002 µL/min. Also, the “share of active hepatic uptake driven by OATP1B1, OATP1B3, and OATP2B1” value in [3] is given as ~ 95%. Also, the Km in series [4] was 28.3 µM. In series [5], the “CLPD basal (hepatic and renal)” value is recorded as 1.1 µl/min/10^6. For the same compound, in series [6], the “contribution of OAT3-mediated active secretion to renal clearance” value is reported as “greater than 90%”, the glomerular filtration rate is ~ 0.22 ml/min/kg and the renal clearance is recorded as ~ 2.6 ml/min/kg. For the same compound, in series [6] (human, in vivo, po), the oral bioavailability is given as ~ 20%. The “Intestinal BCRP Jmax” value in [7] is 380 pmol/min. The same compound had a Papp in series [8] of 1.2 ×10⁻⁶ cm/s. Further, the Km in [9] was 10.8 µM.
